Entries after “also recorded” stand apart in the source; their conditions may differ.
What was measured:
[1] = test system: fibroblasts isolated from an individual with NPC1 disease (NPC-25); test: LysoTracker Red staining quantified by FACS in NPC1 patient fibroblasts; type: cell-based, human; details: for LysoTracker Red staining intensity (NPC1-associated cholesterol storage defects): NPC-25 cells; for increased LysoTracker staining in NPC1 patient fibroblasts: Example 2, FIGS. 8 and 9; for fold change in fluorescence (stained/unstained): NPD patient samples, Example 1, FIGS. 4, 5A, 5B; for normalizing fold-change in fluorescence in cells of NPD subjects: in vitro
Procedure: (D) Bar graphs showing the percentage change of LysoTracker (y-axis) staining intensity in untreated NPC-25 cells (blue bar, set to 100%) as compared to NPC25 cells treated with MβCD, α-T or δ-T (green bars). […] MβCD (Sigma-Aldrich, St. Louis, Mo. cat. #C4555) was resuspended in sterile H2O to a 1 mM stock solution, while α-T and δ-T were dissolved in DMSO to 40 μM, therefore the untreated controls were no drug added for methyl-β-cyclodextrin treatment, and DMSO only added for α-T and δ-T treatment. Statistical analyses performed using Prism (GraphPad).
Cells were cultured in DMEM with fetal bovine serum, L-glutamine, and antibiotics at 5% CO2 in a 37° C. incubator. Cell staining was carried out as follows: Lysotracker-Red Staining Protocol: • Day1—Change media 24 hours before FACS analysis, if treating cells with methyl beta cyclodextrin add the drug as well. • Day2—Note: WORK IN THE DARK, (PROTECT TUBES FROM THE LIGHT while using lysotracker-red) • Dilute LYSOTRACKER-red (1:1000) for a final concentration of 1 μM with culture media. • Incubate cells with lysotracker in the incubator (37° C.) for 30 minutes. • Aspirate media and wash twice with 1×PBS (2 mls each time). • Add 300 μls of Trypsin • Resuspend cells into 5 mls of media and centrifuge at 1000 rpm for 10 minutes in order to obtain pellet. • Resuspend the pellet into 500 uls of media and transfer to FACS vials at 4° C. in the dark. • Perform FACS analysis.
The fluorescence of the cell samples was quantified before and after staining and the fold change in fluorescence was calculated as the ratio of fluorescent intensity after dye/cell autofluorescence. This change was then plotted as a function of time.
Cells were plated onto 60 mm tissue culture dishes and cultured to 70-80% confluency. Media were replaced 24 h prior to analysis. On the day of analysis, cells were incubated at 37° C. for 30 min in fresh media containing 1 μM LysoTracker Red dye (LysoTracker) in 3 mL medium/60 mm dish. Cells were then given two PBS washes, trypsinized, pelleted and resuspended in 500 μL medium. FACS data were collected on 10,000 cells using a FACSCalibur (Becton Dickinson Biosciences, Franklin Lakes, N.J.) equipped with Cell Quest software and analyzed using FlowJo (Tree Star). Fold change in LysoTracker staining was calculated as the ratio of geometric means of stained/unstained samples. Duplicate biological replicates were analyzed on three different days, totaling 6 independent samples per cell line.

[2] = test system: cultured cells; details: cited from earlier work
[3] = test system: fibroblasts (NPC1, NPC2, Wolman, Batten, Fabry, Farber, Niemann-Pick A, Sanfilippo type B, Tay-Sachs diseases); details: 40 μM, fibroblasts of NPC1, NPC2, Wolman; cited from earlier work
[4] = test system: control fibroblasts (CTL1); test: LysoTracker Red staining quantified by FACS in control (wild type) fibroblasts; type: cell-based, human; details: wild type samples, Example 1, FIGS. 4, 5A
Procedure: (A, B) Histograms of FACS analysis of control fibroblasts (A, CTL1) and fibroblasts isolated from an individual with NPC1 disease (B, NPC-25). […] Pink line indicates distribution of unstained cells; blue line indicates LysoTracker-stained cells transfected with an empty control vector (pLenti6.2 Vector/V5 DEST, Invitrogen); green line indicates LysoTracker-stained cells transfected with a human NPC1 cDNA expression vector (Origene, Rockville, Md.; cat. #SC120010). At 72 hours post-transfection, cells were stained with LysoTracker Red dye and analyzed by FACS. […]
The fluorescence of the cell samples was quantified before and after staining and the fold change in fluorescence was calculated as the ratio of fluorescent intensity after dye/cell autofluorescence. […]
Cells were plated onto 60 mm tissue culture dishes and cultured to 70-80% confluency. […] FACS data were collected on 10,000 cells using a FACSCalibur (Becton Dickinson Biosciences, Franklin Lakes, N.J.) equipped with Cell Quest software and analyzed using FlowJo (Tree Star). Fold change in LysoTracker staining was calculated as the ratio of geometric means of stained/unstained samples. Duplicate biological replicates were analyzed on three different days, totaling 6 independent samples per cell line.

[5] = test system: fibroblasts isolated from an individual with NPC1 disease (NPC-25); test: LysoTracker Red staining quantified by FACS in NPC1 patient fibroblasts; type: cell-based, human; details: NPC4 cells

Compound	removal of cholesterol from cultured cells [2]	increased LysoTracker staining in NPC1 patient fibroblasts [1]	fold change in fluorescence (stained/unstained) [1]	normalizing fold-change in fluorescence in cells of NPD subjects [1]	also measured
Cc1c(C)c2c(c(C)c1O)CC[C@@](C)(CCC[C@H](C)CCC[C@H](C)CCCC(C)C)O2 [α-T, α-tocopherol]					LysoTracker Red staining intensity (NPC1-associated cholesterol storage defects) ([1]; 40 μM α-T for 72 hours, vs DMSO only): not
OC[C@H]1O[C@@H]2O[C@H]3[C@H](O)[C@@H](O)[C@@H](O[C@H]4[C@H](O)[C@@H](O)[C@@H](O[C@H]5[C@H](O)[C@@H](O)[C@@H](O[C@H]6[C@H](O)[C@@H](O)[C@@H](O[C@H]7[C@H](O)[C@@H](O)[C@@H](O[C@H]8[C@H](O)[C@@H](O)[C@@H](O[C@H]1[C@H](O)[C@H]2O)O[C@@H]8CO)O[C@@H]7CO)O[C@@H]6CO)O[C@@H]5CO)O[C@@H]4CO)O[C@@H]3CO [β-cyclodextrin]	remove cholesterol				
Cc1cc(O)cc2c1O[C@](C)(CCC[C@H](C)CCC[C@H](C)CCCC(C)C)CC2 [δ-T, δ-tocopherol]		lessened			lysosomal storage defects (including LysoTracker staining) [3]: reduced lysosomal storage defects; LysoTracker Red staining intensity (NPC1-associated cholesterol storage defects) ([1]; 40 μM δ-T for 72 hours, vs DMSO only): relieved NPC1-associated cholesterol storage defects
Methyl-β-cyclodextrin [MβCD]	remove cholesterol; also recorded: more efficient than β-cyclodextrin	lessened	reduced		fold change in fluorescence (stained/unstained) [4]: reduced; LysoTracker Red staining intensity (NPC1-associated cholesterol storage defects) ([1]; 300 μM MβCD for 24 hours, vs untreated cells (100%)): relieved NPC1-associated cholesterol storage defects
Tocopherol			effective in reducing the fold change in fluorescence	useful in normalizing fold-change in fluorescence	
cyclodextrin				useful in normalizing fold-change in fluorescence; also recorded: normalize the fold-change in fluorescence	fluorescence values by FACS (FIG. 1A) [5]: corrected

Reference: patent publication US9983200B2, “Compositions and methods for predicting age of onset of a lysosomal storage disease or a disease associated with a lysosomal defect” (The United States of America, as represented by the …, priority 2013, dated 2018)
